# Legend:
# [1] = oral dietary supplement; cited from earlier work
# [2] = saturated aqueous solution, 20° C.; cited from earlier work
# [3] = Storage stability of the powders; format: physicochemical; settings: shelf life
# [4] = Solubility in water / saturated aqueous solution
# Text: The term “soluble” as used herein means capable of being dissolved, going into a liquid state from a solid state.
Molecule,bioavailability / absorption of calcium (in words) [1],further results
O=C([O-])[O-].[Ca+2] [Calcium carbonate],relatively poor,–
O.O.O.O.O=C([O-])CC(O)(CC(=O)[O-])C(=O)[O-].O=C([O-])CC(O)(CC(=O)[O-])C(=O)[O-].[Ca+2].[Ca+2].[Ca+2] [Calcium citrate tetrahydrate],better absorbed than the carbonate or phosphates of calcium,–
"CC(O)C(=O)[O-].CC(O)C(=O)[O-].O.O.O.O.O.[Ca+2] (stereo not shown) [calcium lactate pentahydrate, 2-hydroxypropanoic acid calcium salt pentahydrate]",good,–
O.O.O=P([O-])([O-])O.[Ca+2] [dibasic calcium phosphate dihydrate],poor,–
O=P([O-])([O-])[O-].O=P([O-])([O-])[O-].[Ca+2].[Ca+2].[Ca+2] [tribasic calcium phosphate],poor,–
d-gluconic acid calcium salt [Calcium gluconate],–,pH of saturated solution [2]: 6-7
magnesium 3-hydroxy-3-methylbutyrate [MgHMB],–,stability of the powder (in words) [3]: stable powders with long shelf lives; concentration of saturated aqueous solution ([4]; 20° C.): 32 % by weight; solubility over pH range (in words) ([4]; broad range of pH values): highly soluble; pH of aqueous solution (in words) ([4]; pure salt dissolved in water): nearly neutral or slightly alkaline

# From US20040220266A1, “Composition and method for enhancing the bioavailability of calcium and magnesium in dietary supplements and food additives” (priority 2002, published 2004)
